According to ChEMBL document CHEMBL5120754, “Structural modification aimed for improving solubility of lead compounds in early phase drug discovery” (Bioorg Med Chem, 2022):
Values after ≈ are worked out from the molar mass of the structure shown.

What was measured:
[1] = test system: Trypanosoma brucei brucei; assay: Antitrypanosomal activity against Trypanosoma brucei brucei S427 incubated for 48 hrs by PrestoBlue dye based fluorescence assay; assay type: functional, organism-based; settings: S427, 48 h
physchem [2] = settings: buffer
[3] = biological target: Transient receptor potential cation channel subfamily V member 1 (Homo sapiens, UniProt Q8NER1); assay: Antagonist activity at TRPV1 (unknown origin)
[4] = biological target: 3',5'-cyclic-AMP phosphodiesterase 4D (Homo sapiens, UniProt Q08499); assay: Inhibition of PDE4D (unknown origin)
Glutamate NMDA receptor = assay: Antagonist activity at NMDA receptor in rat cortical wedges assessed as inhibition of NMDA-induced depolarization
Hepatitis C virus = assay: Antiviral activity against HCV GT1b-genotype; assay type: functional, organism-based, Hepacivirus hominis
[5] = buffer
[6] = biological target: Metabotropic glutamate receptor 2 (Homo sapiens, UniProt Q14416); assay: Positive allosteric modulation of mGlu2 receptor (unknown origin)
[7] = Permeability of compound in human Caco-2 cells; assay type: ADME, cell-based; settings: read-out: permeability
physchem [8] = settings: octanol/water
[9] = biological target: Histone-lysine N-methyltransferase EZH2 (Homo sapiens, UniProt Q15910, Y641N); assay: Inhibition of EZH2 Y641N mutant (unknown origin)
[10] = biological target: Corticotropin-releasing factor receptor 1 (Homo sapiens, UniProt P34998); assay: Antagonist activity at human CRF1 receptor; assay type: functional
[11] = biological target: Isocitrate dehydrogenase [NADP] cytoplasmic (Homo sapiens, UniProt O75874, R132H); assay: Inhibition of IDH1 R132H mutant (unknown origin)
Cannabinoid receptor 2 = Cannabinoid receptor 2 (Homo sapiens, UniProt P34972); assay: Binding affinity towards human CB2 receptor
[12] = biological target: Epidermal growth factor receptor (Homo sapiens, UniProt P00533, L858R/T790M)
[13] = biological target: Bifunctional epoxide hydrolase 2 (Homo sapiens, UniProt P34913); assay: Inhibition of recombinant human sEH using CMNPC as substrate incubated for 10 mins and measured by fluorescence assay
[14] = test system: Mycobacterium tuberculosis; assay: microbe, parasite or virus in culture
P2Y purinoceptor 12 = P2Y purinoceptor 12 (Homo sapiens, UniProt Q9H244); assay: Antagonist activity at P2Y12 receptor in human platelet rich plasma; assay type: functional
[15] = biological target: T1, Glucose-dependent insulinotropic receptor (Homo sapiens, UniProt Q8TDV5); assay: Agonist activity at GPR119 (unknown origin); assay type: functional
T1 sequence (Q8TDV5 whole entry): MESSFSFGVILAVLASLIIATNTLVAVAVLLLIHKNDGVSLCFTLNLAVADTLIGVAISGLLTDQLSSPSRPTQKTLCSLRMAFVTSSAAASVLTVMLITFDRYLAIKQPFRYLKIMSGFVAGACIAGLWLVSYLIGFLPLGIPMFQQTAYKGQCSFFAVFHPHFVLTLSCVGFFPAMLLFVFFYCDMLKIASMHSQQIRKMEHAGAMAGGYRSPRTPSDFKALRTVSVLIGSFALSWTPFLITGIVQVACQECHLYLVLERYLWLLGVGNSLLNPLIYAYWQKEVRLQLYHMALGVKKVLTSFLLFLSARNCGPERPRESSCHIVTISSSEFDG

[16] = Lipophilicity, logD of compound; assay type: physicochemical; settings: octanol/water
[17] = biological target: Glutamate receptor ionotropic AMPA (Homo sapiens, UniProt P42261+P42262+P42263+P48058); assay: Antagonist activity at AMPA receptor (unknown origin); assay type: protein-complex assay
[18] = Antagonist activity at GlyN receptor (unknown origin); parameters: species or system Homo sapiens
[19] = biological target: cGMP-specific 3',5'-cyclic phosphodiesterase (Homo sapiens, UniProt O76074); assay: Inhibition of PDE5 (unknown origin) using FAM-cGMP or FAM-cAMP as substrate incubated for 60 mins and measured by fluorescence polarization assay
[20] = biological target: Tyrosine-protein kinase SYK (Homo sapiens, UniProt P43405); assay: Inhibition of SYK (unknown origin)
[21] = biological target: Peroxisome proliferator-activated receptor gamma (Homo sapiens, UniProt P37231); assay: Agonist activity at human PPARgamma
A549 = assay: Antiproliferative activity against human A549 cells by MTT assay; assay type: functional, cell-based
Staphylococcus aureus = assay: Antibacterial activity against methicillin-resistant Staphylococcus aureus in in-vivo systemic infection model; assay type: functional

Chain of P2Y purinoceptor 12 (Q9H244 whole entry): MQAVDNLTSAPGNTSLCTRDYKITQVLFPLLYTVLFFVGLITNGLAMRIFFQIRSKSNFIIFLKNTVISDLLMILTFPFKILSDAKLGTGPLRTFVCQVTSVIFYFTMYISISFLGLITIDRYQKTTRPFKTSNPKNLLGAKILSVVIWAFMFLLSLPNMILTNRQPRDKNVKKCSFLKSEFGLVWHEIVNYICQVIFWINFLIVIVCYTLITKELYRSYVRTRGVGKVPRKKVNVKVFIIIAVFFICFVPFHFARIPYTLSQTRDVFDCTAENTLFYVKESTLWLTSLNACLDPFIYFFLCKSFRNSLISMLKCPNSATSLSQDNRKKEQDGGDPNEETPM
Chain of Isocitrate dehydrogenase [NADP] cytoplasmic (O75874 2-414 R132H limits assumed): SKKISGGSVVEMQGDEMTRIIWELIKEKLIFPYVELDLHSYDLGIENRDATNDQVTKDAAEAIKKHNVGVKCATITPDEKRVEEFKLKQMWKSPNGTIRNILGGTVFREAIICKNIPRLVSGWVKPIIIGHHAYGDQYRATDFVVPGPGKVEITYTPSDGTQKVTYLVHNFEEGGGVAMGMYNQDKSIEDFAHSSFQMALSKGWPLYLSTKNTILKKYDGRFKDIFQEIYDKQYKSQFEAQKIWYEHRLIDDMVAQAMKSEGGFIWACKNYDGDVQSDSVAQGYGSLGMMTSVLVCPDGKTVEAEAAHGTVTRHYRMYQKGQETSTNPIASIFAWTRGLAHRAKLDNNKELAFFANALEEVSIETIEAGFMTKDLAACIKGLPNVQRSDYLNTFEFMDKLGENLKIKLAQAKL
Chain of Peroxisome proliferator-activated receptor gamma (P37231 whole entry): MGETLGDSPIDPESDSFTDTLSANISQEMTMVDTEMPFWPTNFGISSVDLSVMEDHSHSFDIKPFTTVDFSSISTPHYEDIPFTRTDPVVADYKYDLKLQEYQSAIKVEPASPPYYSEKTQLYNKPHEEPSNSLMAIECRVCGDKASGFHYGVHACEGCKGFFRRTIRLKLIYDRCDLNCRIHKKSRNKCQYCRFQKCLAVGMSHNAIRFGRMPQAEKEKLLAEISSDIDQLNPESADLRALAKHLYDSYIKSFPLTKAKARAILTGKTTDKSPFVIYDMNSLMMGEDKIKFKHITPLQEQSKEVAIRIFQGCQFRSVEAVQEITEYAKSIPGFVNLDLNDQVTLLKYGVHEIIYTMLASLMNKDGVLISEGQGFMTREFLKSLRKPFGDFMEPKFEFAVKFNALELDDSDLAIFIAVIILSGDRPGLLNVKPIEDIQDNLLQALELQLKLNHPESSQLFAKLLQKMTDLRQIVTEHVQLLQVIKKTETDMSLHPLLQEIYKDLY
Chain of Bifunctional epoxide hydrolase 2 (P34913 whole entry): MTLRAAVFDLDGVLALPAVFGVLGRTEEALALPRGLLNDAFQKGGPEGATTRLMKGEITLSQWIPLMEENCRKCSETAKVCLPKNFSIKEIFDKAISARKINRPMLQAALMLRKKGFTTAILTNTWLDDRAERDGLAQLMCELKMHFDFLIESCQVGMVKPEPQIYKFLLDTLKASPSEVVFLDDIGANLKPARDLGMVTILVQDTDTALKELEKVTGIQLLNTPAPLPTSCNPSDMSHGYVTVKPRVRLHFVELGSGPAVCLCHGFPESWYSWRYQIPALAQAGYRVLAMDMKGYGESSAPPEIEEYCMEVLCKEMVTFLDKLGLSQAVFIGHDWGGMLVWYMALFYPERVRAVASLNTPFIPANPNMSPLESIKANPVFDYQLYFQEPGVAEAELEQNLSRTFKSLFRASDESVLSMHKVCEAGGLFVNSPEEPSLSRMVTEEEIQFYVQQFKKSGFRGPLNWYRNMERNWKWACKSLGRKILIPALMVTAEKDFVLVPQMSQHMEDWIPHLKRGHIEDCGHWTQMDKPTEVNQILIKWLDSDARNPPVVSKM
Chain of Transient receptor potential cation channel subfamily V member 1 (Q8NER1 whole entry): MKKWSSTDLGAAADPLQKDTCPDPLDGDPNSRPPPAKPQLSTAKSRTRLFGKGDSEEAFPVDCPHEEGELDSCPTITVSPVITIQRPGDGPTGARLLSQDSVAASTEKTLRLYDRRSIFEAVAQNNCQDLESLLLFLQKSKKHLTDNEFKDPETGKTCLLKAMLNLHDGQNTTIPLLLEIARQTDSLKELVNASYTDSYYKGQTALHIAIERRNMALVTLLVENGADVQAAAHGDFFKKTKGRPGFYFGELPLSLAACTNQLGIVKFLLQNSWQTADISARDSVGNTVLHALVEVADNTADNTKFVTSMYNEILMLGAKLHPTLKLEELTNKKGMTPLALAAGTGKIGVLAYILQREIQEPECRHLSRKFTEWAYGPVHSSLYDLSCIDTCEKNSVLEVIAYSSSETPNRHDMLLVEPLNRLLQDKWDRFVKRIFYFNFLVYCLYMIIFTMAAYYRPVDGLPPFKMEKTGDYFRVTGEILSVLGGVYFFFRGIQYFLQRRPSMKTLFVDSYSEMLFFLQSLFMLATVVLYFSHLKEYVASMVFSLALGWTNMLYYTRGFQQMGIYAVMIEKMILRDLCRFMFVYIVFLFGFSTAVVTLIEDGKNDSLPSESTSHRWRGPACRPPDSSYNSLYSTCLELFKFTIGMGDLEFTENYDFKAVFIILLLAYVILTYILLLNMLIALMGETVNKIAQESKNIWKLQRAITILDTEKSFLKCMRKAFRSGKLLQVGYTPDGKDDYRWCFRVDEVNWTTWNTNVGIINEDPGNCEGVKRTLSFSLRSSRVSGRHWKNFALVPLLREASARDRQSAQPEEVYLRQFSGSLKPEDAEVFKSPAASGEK
Chain of Corticotropin-releasing factor receptor 1 (P34998 whole entry): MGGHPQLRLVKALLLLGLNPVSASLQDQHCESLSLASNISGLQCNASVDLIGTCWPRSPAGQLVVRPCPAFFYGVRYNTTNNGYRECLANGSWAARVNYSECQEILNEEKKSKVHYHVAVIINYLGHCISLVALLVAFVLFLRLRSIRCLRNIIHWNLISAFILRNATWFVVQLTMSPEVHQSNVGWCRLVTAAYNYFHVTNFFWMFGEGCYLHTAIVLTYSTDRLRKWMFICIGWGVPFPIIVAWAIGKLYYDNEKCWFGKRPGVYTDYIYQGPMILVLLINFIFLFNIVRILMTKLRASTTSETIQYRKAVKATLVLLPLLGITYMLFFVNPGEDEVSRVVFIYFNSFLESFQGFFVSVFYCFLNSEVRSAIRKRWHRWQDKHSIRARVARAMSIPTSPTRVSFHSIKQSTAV
Chain of 3',5'-cyclic-AMP phosphodiesterase 4D (Q08499 whole entry): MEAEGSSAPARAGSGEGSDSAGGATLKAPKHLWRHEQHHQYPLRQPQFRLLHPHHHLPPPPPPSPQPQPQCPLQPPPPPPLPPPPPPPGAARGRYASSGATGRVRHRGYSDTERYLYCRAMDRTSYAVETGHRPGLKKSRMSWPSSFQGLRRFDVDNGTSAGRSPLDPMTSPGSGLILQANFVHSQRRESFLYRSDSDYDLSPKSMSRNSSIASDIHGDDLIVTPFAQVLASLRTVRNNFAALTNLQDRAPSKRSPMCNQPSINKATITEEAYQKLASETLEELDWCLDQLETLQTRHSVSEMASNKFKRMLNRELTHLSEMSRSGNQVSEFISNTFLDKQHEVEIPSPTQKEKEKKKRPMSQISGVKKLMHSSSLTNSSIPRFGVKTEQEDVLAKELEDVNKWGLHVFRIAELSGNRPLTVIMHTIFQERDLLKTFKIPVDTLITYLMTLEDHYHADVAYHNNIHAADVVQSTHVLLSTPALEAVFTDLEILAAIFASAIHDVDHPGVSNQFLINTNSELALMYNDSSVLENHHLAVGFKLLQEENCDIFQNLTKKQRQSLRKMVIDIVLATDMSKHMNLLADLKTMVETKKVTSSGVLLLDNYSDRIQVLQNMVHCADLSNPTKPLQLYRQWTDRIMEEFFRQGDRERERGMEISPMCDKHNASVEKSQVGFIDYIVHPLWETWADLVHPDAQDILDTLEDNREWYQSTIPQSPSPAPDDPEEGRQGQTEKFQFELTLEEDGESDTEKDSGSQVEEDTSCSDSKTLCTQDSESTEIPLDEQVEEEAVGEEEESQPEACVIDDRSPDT
Chain of Cannabinoid receptor 2 (P34972 whole entry): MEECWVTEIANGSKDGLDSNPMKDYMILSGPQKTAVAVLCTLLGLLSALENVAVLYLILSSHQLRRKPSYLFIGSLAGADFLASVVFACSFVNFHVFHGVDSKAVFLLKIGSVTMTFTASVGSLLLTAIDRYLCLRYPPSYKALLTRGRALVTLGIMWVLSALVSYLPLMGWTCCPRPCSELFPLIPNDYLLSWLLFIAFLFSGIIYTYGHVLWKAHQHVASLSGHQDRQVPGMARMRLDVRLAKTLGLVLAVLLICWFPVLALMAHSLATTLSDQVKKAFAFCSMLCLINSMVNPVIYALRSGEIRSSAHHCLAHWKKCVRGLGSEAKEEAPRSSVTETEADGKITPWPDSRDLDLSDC
Chain of Histone-lysine N-methyltransferase EZH2 (Q15910 whole entry Y641N): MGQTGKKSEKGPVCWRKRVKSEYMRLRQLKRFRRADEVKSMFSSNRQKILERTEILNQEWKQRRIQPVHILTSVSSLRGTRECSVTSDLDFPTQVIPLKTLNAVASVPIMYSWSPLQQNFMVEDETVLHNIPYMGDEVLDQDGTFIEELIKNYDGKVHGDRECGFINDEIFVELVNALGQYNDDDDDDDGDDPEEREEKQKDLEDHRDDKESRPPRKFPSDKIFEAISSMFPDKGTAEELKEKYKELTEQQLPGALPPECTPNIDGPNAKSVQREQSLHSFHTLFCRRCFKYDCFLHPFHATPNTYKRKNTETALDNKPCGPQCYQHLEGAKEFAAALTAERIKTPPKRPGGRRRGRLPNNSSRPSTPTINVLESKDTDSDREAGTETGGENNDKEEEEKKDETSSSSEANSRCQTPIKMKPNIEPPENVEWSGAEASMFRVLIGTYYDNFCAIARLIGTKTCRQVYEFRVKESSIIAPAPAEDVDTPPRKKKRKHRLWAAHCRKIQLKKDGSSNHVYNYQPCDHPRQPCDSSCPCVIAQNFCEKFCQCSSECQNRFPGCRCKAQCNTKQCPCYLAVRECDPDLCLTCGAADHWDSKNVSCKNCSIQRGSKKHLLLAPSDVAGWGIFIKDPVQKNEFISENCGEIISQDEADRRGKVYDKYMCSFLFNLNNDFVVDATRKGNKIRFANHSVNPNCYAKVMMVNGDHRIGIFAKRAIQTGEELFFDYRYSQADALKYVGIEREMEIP

Q: For `CN1CCCN(c2ncc(-c3ccc4c(Nc5cnccn5)ccnc4c3)cn2)CC1`, which EC50 [1] is on record?
A: The EC50 was 13 nM.

Q: For `CC(=O)Nc1nc2c(Oc3cc(C4=CCC(C(F)(F)F)CC4)ncn3)cccc2s1` (stereo not given), which solubility thermodynamic (physchem [2]) is on record?
A: The solubility thermodynamic was 13 µg/mL.

Q: And the IC50 [3]?
A: Its IC50 is 27 nM.

Q: Which solubility thermodynamic (physchem [2]) does the source give for `O=C(O)C1CCC(c2cc3cccnc3c(-c3cccc(F)c3)n2)CC1` (stereo not given) here?
A: Its solubility thermodynamic is 920 µg/mL.

Q: And the IC50 [4]?
A: Its IC50 is 32 nM.

Q: With `CCC(c1c(Cl)c(Cl)cc2nc(O)c(O)nc12)n1cncn1` (stereo not given) as the compound, how does the solubility thermodynamic (physchem [2]) read?
A: Its solubility thermodynamic is 10 µg/mL.

Q: What about the IC50 (Glutamate NMDA receptor) of the same compound?
A: The IC50 was 4.4 nM.

Q: Which EC50 (Hepatitis C virus) does the source give for `COc1c(/C=C/c2ccc(NS(C)(=O)=O)cc2)cc(N2CCC(=O)NC2=O)cc1C(C)(C)C` here?
A: Its EC50 is 0.3 nM.

Q: And the Therm_solubility [5]?
A: The Therm_solubility was 20700 µg/mL.

Q: With `Fc1ccc(C2CCC(c3ccn4c(CC5CC5)nnc4c3C(F)(F)F)CC2)c(F)c1` (stereo not given) as the compound, how does the solubility thermodynamic (physchem [2]) read?
A: The solubility thermodynamic was 50 µg/mL.

Q: What about the EC50 [6] of the same compound?
A: The EC50 was 78 nM.

Q: What about the Papp [7] of the same compound?
A: The Papp was 22 ×10⁻⁶ cm/s.

Q: And the logP (physchem [8])?
A: Its logP is 4.2.

Q: For `COc1cc(C)[nH]c(=O)c1CN1CCc2c(Cl)cc([C@H](OC)C3COC3)c(Cl)c2C1=O` [MEVROMETOSTAT], which Ki [9] is on record?
A: Its Ki is less than 0.1 nM.

Q: For `CCCN(CC1CC1)c1cc(C)nc2c(-c3ccc(Cl)cc3Cl)c(C)nn12`, which IC50 [10] is on record?
A: Its IC50 is 76 nM.

Q: What does the source list for `COc1nc(N[C@@H](C)c2cc3cc(Cl)ccc3[nH]c2=O)ncc1C#N`?
A: solubility thermodynamic (physchem [2]): 10.5 µM; IC50 [11]: 81.4 nM

Q: For `CCCCCn1c(=O)c(C(=O)NC23CC4CC(CC(C4)C2)C3)c(O)c2ccc(F)cc21`, which solubility thermodynamic (physchem [2]) is on record?
A: Its solubility thermodynamic is 1.5 µg/mL.

Q: What about the Ki (Cannabinoid receptor 2) of the same compound?
A: Its Ki is 0.8 nM.

Q: Which IC50 [12] does the source give for `C=CC(=O)N1CCC(N2C(=O)N(c3ccccc3)Cc3cnc(Nc4ccc(N5CCN(C)CC5)c(C)c4)nc32)C1` (stereo not given) here?
A: The IC50 was 9.2 nM.

Q: Which results are given for `O=C(NC1=CC=CC1)NC12CC3CC(CC(C3)C1)C2`?
A: solubility thermodynamic (physchem [2]): 0.1 µg/mL; IC50 [13]: 0.4 nM; MIC [14]: 0.01 µg/mL (≈ 0.0387 µM)

Q: Which results are given for `CCOC(=O)c1cc(C#N)c(N2CCC(C(=O)NS(=O)(=O)Cc3ccccc3)CC2)nc1C`?
A: solubility thermodynamic (physchem [2]): 2.99 µM; IC50 (P2Y purinoceptor 12): 3600 nM

Q: What does the source list for `CC(C)c1nc(N2CCN(c3ncc(OCc4ccncc4C#N)cn3)CC2)no1`?
A: solubility thermodynamic (physchem [2]): 6 µM; EC50 [15]: 6 nM; logD [16]: 3.3

Q: Which solubility thermodynamic (physchem [2]) does the source give for `CCOC(=O)CN(C)Cc1c(CC)c([N+](=O)[O-])cc2nc(O)c(O)nc12` here?
A: The solubility thermodynamic was 150 µg/mL.

Q: What about the IC50 [17] of the same compound?
A: The IC50 was 140 nM.

Q: What about the IC50 [18] of the same compound?
A: Its IC50 is 470 nM.

Q: Which solubility thermodynamic (physchem [2]) does the source give for `COc1ccc(CNc2c(CO)cnc3c(C4CC4)cc(C#N)cc23)cc1Cl` here?
A: The solubility thermodynamic was 3.9 µM.

Q: What about the IC50 [19] of the same compound?
A: The IC50 was 0.37 nM.

Q: For `CC(C)N1C[C@H]2C[C@@H]1CN2c1ccc(Nc2nc(-c3ccc4cn[nH]c4c3)cn3ccnc23)cc1`, which solubility thermodynamic (physchem [2]) is on record?
A: Its solubility thermodynamic is 0.216 µg/mL.

Q: What about the IC50 [20] of the same compound?
A: The IC50 was 80 nM.

Q: What does the source list for `CCCOc1ccc(CC(Cc2ccccc2)C(=O)O)cc1CNC(=O)c1ccc(-c2ncccn2)cc1` (stereo not given)?
A: solubility thermodynamic (physchem [2]): 301 µg/mL; EC50 [21]: 34.6 nM

Q: Which solubility thermodynamic (physchem [2]) does the source give for `CC[C@]1(OC(=O)CNC(=O)CCC(=O)O)C(=O)OCc2c1ccn(Cc1cnc3ccc4c(c3c1)C(=O)NC(C(C)C)O4)c2=O` (stereo not given in full) here?
A: Its solubility thermodynamic is 3400 µg/mL.

Q: And the IC50 (A549)?
A: The IC50 was 6470 nM.

Q: Which ED50 (Staphylococcus aureus) does the source give for `CC(=O)NC[C@H]1CN(c2ccc(N3CCOCC3)c(F)c2)C(=O)O1` [LINEZOLID] here?
A: The ED50 was 5 mg/kg.
